Experimental data published in ChEMBL document CHEMBL1141637, “Synthesis and anti-inflammation evaluation of new C60 fulleropyrrolidines bearing biologically active xanthine” (2008).

Assays:
[1] = system: J774.A1; test: Reduction of LPS-induced nitric oxide production in mouse J774A.1 cells at 10 uM after 3 hrs relative to control; type: functional; set-up: scale not given: the % may be the effect or the level left
[2] = system: J774.A1; test: Reduction of LPS-induced TNFalpha production in mouse J774A.1 cells at 10 uM after 3 hrs by ELISA relative to control; type: functional; set-up: scale not given: the % may be the effect or the level left

CC(=O)CCCCn1c(=O)c2c(ncn2C)n(C)c1=O [PENTOXIFYLLINE]
Activity [1]: 33.9% | Activity [2]: 7.5%
